Consider 10 substances from patent US11548935B2 (NeoMatrix Therapeutics Inc., priority 2016, dated 2023).

Entries after “also recorded” stand apart in the source; their conditions may differ.

The subject of series [1] is adult human dermal fibroblast. The experiment in a line: Screening experiment of adult human dermal fibroblast survival in medium without serum with 1 nM PDGF-BB. The format is cell-based. The settings on record: 6 days of incubation.
The subject of series [2] is Adult human dermal fibroblasts CF31 cells. Briefly: Fibroblast metabolism (XTT) assay with 1 nM PDGF-BB, 6 days. It counts as cell-based. The settings on record: for promotion of survival of adult human dermal fibroblasts in the presence of PDGF-BB: FIG. 4, XTT; for bioactivity as determined by fibroblast metabolism assay: FIG. 2, XTT OD 450 nm. As to the method: Adult human dermal fibroblasts CF31 cells at 1000 cells/well were seeded in a collagen-coated 96-well plate in DMEM overnight, then 1 nM PDGF-BB with peptides at indicated doses was added and cells were incubated at 37° C. for 6 days. Then cell metabolism was measured by XTT assay by reading OD at 450 nm. Each point represents the mean of 6 replicates with a typical SD=5-10% around the mean (not shown for graft clarity).
Adult human dermal fibroblasts, CF31, at 1000 cells/well were incubated at 37° C. in a collagen-coated 96-well plate with DMEM, 1 nM PDGF-BB with peptides at indicated doses for 6 days and then cell metabolism was measured by XTT assay, reading OD at 450 nm. Data represent the mean of 6 replicates.
P12, P46, cNP7 and cNP8 were compared for their ability to promote the survival of adult human dermal fibroblasts in the presence of PDGF-BB. Adult human dermal fibroblasts at 1000 cells/well were incubated in a collagen-coated 96-well plate with DMEM, 1 nM PDGF-BB with peptides at indicated doses for 6 days and then cell metabolism was measured by XTT assay. Data represent the mean of 6 replicates (FIG. 4).
(In general: Tetrazolium assays rely on reduction of a dye to a coloured formazan, in cell work by metabolically active cells.)

Series [3] deals with PDGF-BB (Homo sapiens, UniProt P01127). Briefly: Surface plasmon resonance (Biacore) binding to growth factor. The note with it: plasmon surface resonance (Biacore T200). As to the method:
(§1) To study the binding activities of these peptides, real time interactions of P12, P46, and cNP8 with growth factors were determined by plasmon surface resonance (Biacore T200).
In the Biacore2000 system, binding constants from kinetic data are determined by passing varying concentrations of FN peptides (analytes) over chip surfaces which are coupled with PDGF-BB (ligand), respectively. All kinetic experiments are carried out at 20° C. at a flow rate of 20 μl/min. For mass transport experiments, each analyte is injected at a fixed concentration and run at flow rates ranging from 5 to 75 μl/min. All analytes are injected over PDGF-BB ligand surfaces as well as over a control surface for 120 s, followed by 300 s of dissociation in running buffer. Regeneration of the sensor chip for subsequent injections is accomplished by pulse of 0.1% SDS. Mass transport experiments have detected little difference in response at different flow rates thus validating data from kinetic experiments. Sensorgrams are prepared and globally fitted using nonlinear least-squares analysis and numerical integration of the differential rate equations with the Biacore Bioevaluation software. […] Each data set, which consists of a series of sensorgrams from injections of different concentration of analyte over the same surface, is analyzed using kinetic models from Bioevaluation software.
A general note: SPR reads the build-up and loss of mass on a sensor chip optically.

Series [4] addresses insulin-like growth factor-1 (IGF-1) (Homo sapiens, UniProt P05019). Described as above. The settings on record: plasmon surface resonance (Biacore T200). Here is the method: as §1
The target in series [5] is Transforming Growth Factor-Beta1 (TGF-β1) (Homo sapiens, UniProt P01137). The description is as above. The note with it: plasmon surface resonance (Biacore T200). Here is the method:
as §1

Series [6] addresses epidermal growth factor (EGF) (Homo sapiens, UniProt P01133). Described as above. The settings on record: plasmon surface resonance (Biacore T200). Here is the method: as §1
Series [7] deals with T1, human neutrophil elastase (Homo sapiens, UniProt P08246).
T1 sequence (P08246 30-267): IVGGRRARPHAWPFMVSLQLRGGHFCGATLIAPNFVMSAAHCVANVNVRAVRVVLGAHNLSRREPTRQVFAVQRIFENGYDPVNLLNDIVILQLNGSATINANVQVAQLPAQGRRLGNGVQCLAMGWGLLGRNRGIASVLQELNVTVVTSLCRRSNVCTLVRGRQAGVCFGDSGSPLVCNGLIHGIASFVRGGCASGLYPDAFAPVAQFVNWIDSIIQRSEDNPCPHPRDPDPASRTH
Experimental: P46 was incubated with purified human neutrophil elastase at 1:100 enzyme:substrate molar ratio at 37° C. for 4 h (3A) or 24 h (3B). Peptides stability was determined by MALDI-TOF analysis.
Peptides' stability was determined by MALDI-TOF analysis.
The reaction was stopped with formic acid and the reaction mixture was analyzed by mass spectroscopy.
To determine the sensitivity of P46 to elastase digestion, P46 was synthesized and digested with elastase. […] P46 was incubated with purified human neutrophil elastase at 1:100 enzyme:substrate molar ratio at 37° C. for 4 h (FIG. 3A) or 24 h (FIG. 3B). The elastase-generated smaller peptides were determined by MALDI-TOF analysis.
Peptide's stability was determined by MALDI-TOF analysis.

The test system of series [8] is human neutrophil elastase. The experiment in a line: purified human neutrophil elastase. The settings on record: up to 24 h.

PDGF-BB, sequence (P01127 82-190 limits assumed): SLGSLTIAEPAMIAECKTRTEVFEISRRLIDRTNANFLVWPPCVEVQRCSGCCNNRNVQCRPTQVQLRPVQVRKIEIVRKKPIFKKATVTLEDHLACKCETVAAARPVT
Transforming Growth Factor-Beta1 (TGF-β1), sequence (P01137 279-390 limits assumed, species assumed): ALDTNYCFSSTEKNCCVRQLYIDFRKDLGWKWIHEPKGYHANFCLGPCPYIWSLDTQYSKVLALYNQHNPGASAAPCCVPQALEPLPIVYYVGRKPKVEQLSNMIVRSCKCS
epidermal growth factor (EGF), sequence (P01133 971-1023 limits assumed, species assumed): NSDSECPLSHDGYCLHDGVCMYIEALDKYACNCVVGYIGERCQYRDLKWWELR
insulin-like growth factor-1 (IGF-1), sequence (P05019 49-118, species assumed): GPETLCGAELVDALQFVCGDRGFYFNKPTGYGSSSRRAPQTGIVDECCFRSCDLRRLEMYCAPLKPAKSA

Take “HIGKYGLRWRPKGSV (polypeptide according to formula I) [NP8, engineered peptide designed from P46]”: the “biological activity on screening experiment of fibroblast survival” value (shortened to “biological activity”) in series [1] was “best biological activity”.
In the case of “HIGKYGLRWRPKNSV [cNP7, cyclic form of engineered peptide NP7]”, the “promotion of survival of adult human dermal fibroblasts in the presence of PDGF-BB” value in series [2] is “promoted the survival of adult human dermal fibroblasts”.
For the substance “HISKYILGWRPKNSV (NP9 peptide) [engineered peptide designed from P46]”, the “biological activity” value in series [1] is given as “minimal biological activity”.
“HISKYILRGRPKNSV (NP10 peptide) [engineered peptide designed from P46]”: in series [1], the “biological activity” value was “minimal biological activity”.
The same measure, in the same setting: in the case of “HISKYILRWGPKNSV (NP11 peptide) [engineered peptide designed from P46]” it was “minimal biological activity”.
Turning to “HISKYILRWRPKNSV (polypeptide according to formula I) [P46, peptide produced by elastase digestion of FN III1-C]”, in series [3], the “binding to PDGF-BB” value was “bind”. In series [4], the “binding to IGF-1” value is “did not bind”. Besides, the “binding to TGF-β1” value in series [5] was “bind”. Further, the “binding to EGF” value in series [6] is “did not bind”. Besides, the “sensitivity to elastase digestion” value in series [7] is listed as “retained some sensitivity to elastase digestion”. Further, in series [2], the “bioactivity as determined by fibroblast metabolism assay” value is “much higher bioactivity than that of P12” and the “promotion of survival of adult human dermal fibroblasts in the presence of PDGF-BB” value is reported as “promoted the survival of adult human dermal fibroblasts”.
Regarding PSHISKYILRWRPK, the fragment found entry in series [8] is “KYILRWRPKPSHIS; also recorded: RWRPKPSHISKYIL”.
Consider PSHISKYILRWRPK [cP12], for which, in series [7], the “degradation by neutrophil elastase” value is on record as “remain sensitive to this endopeptidase” and the “number of elastase-cleavage sites” value is listed as “five”.
“SKYILRWRPKNSV (P45 peptide) [peptide produced by elastase digestion of FN III1-C]”: the “bioactivity as determined by fibroblast metabolism assay” value in series [2] is “little bioactivity”.
For the substance “cyclo(HIGKYGLRWRPKGSV) (SMILES CC[C@H](C)[C@@H]1NC(=O)[C@H](Cc2c[nH]cn2)NC(=O)[C@H](C(C)C)NC(=O)[C@H](CO)NC(=O)CNC(=O)[C@H](CCCCN)NC(=O)[C@@H]2CCCN2C(=O)[C@H](CCCNC(=N)N)NC(=O)[C@H](Cc2c[nH]c3ccccc23)NC(=O)[C@H](CCCNC(=N)N)NC(=O)[C@H](CC(C)C)NC(=O)CNC(=O)[C@H](Cc2ccc(O)cc2)NC(=O)[C@H](CCCCN)NC(=O)CNC1=O)”, the not cleaved entry in series [8] (37° C.) is recorded as “A large majority of intact peptide was retained at 24 h”.
